Experiments:
[1] = DSC
[2] = molar heat capacity at constant pressure; settings: 101.33 kPa
[3] = Molar enthalpy of transition or fusion; settings: DSC

C[n+]1ccn(Cc2ccccc2)c1.O=S(=O)([O-])C(F)(F)C(F)F
Crystal
Settings	Molar enthalpy of transition or fusion [kcal/mol]	Triple point temperature [K]
[1]	–	315.4
[3]	5.64	–

Settings	Glass transition temperature [°C]
[1]	-44.0

[2]
Settings	molar heat capacity at constant pressure [J/K/mol]
278.51 K, Crystal, Small sample (50 mg) DSC	393.57
283.62 K, Crystal, Small sample (50 mg) DSC	402.07
288.72 K, Crystal, Small sample (50 mg) DSC	411.24
293.83 K, Crystal, Small sample (50 mg) DSC	423.44
298.15 K, Crystal, Drop calorimetry	434.75
298.15 K, Metastable liquid, Drop calorimetry	509.51
334.67 K, Liquid, Small sample (50 mg) DSC	527.08
339.77 K, Liquid, Small sample (50 mg) DSC	530.26
344.88 K, Liquid, Small sample (50 mg) DSC	533.48
349.98 K, Liquid, Small sample (50 mg) DSC	537.12
355.09 K, Liquid, Small sample (50 mg) DSC	540.53

C[n+]1ccn(Cc2ccccc2)c1.O=S(=O)([N-]S(=O)(=O)C(F)(F)F)C(F)(F)F
Settings	Glass transition temperature [°C]
[1]	-56.4

[2], Liquid
Settings	molar heat capacity at constant pressure [J/K/mol]
258.09 K, Small sample (50 mg) DSC	588.22
263.2 K, Small sample (50 mg) DSC	589.8
268.3 K, Small sample (50 mg) DSC	592.39
273.38 K, Small sample (50 mg) DSC	596.83
278.51 K, Small sample (50 mg) DSC	597.13
283.61 K, Small sample (50 mg) DSC	599.43
288.72 K, Small sample (50 mg) DSC	601.59
293.82 K, Small sample (50 mg) DSC	603.91
298.15 K, Drop calorimetry	598.96
298.93 K, Small sample (50 mg) DSC	606.63
304.03 K, Small sample (50 mg) DSC	609.41
309.14 K, Small sample (50 mg) DSC	611.94
314.24 K, Small sample (50 mg) DSC	615.52
319.35 K, Small sample (50 mg) DSC	618.97
324.45 K, Small sample (50 mg) DSC	621.42
329.41 K, Small sample (50 mg) DSC	624.07
334.67 K, Small sample (50 mg) DSC	626.99
339.78 K, Small sample (50 mg) DSC	630.16
344.88 K, Small sample (50 mg) DSC	633.62
349.99 K, Small sample (50 mg) DSC	636.94
355.08 K, Small sample (50 mg) DSC	640.33

C[n+]1ccn(Cc2ccccc2)c1.[Cl-] [1-benzyl-3-methyl-1H-imidazolium chloride]
Settings	Glass transition temperature [°C]
[1]	-8.4

molar heat capacity at constant pressure [J/K/mol], [2]
Settings	Crystal	Metastable liquid
261.06 K, Small sample (50 mg) DSC	238.97	–
265 K, Small sample (50 mg) DSC	243.67	–
270 K, Small sample (50 mg) DSC	252.99	–
275 K, Small sample (50 mg) DSC	261.15	–
277.11 K, Small sample (50 mg) DSC	–	329.64
280 K, Small sample (50 mg) DSC	269.17	330.72
285 K, Small sample (50 mg) DSC	278.83	332.88
289.14 K, Small sample (50 mg) DSC	288.47	–
290 K, Small sample (50 mg) DSC	–	335.29
295 K, Small sample (50 mg) DSC	–	338
298.15 K, Drop calorimetry	–	338.43
300 K, Small sample (50 mg) DSC	–	340.37
305 K, Small sample (50 mg) DSC	–	342.49
310 K, Small sample (50 mg) DSC	–	344.71
315 K, Small sample (50 mg) DSC	–	346.85
320 K, Small sample (50 mg) DSC	–	348.98
325 K, Small sample (50 mg) DSC	–	351.32
330 K, Small sample (50 mg) DSC	–	353.53
335 K, Small sample (50 mg) DSC	–	355.73
340 K, Small sample (50 mg) DSC	–	358
345 K, Small sample (50 mg) DSC	–	360.85
350 K, Small sample (50 mg) DSC	–	363.87
355 K, Small sample (50 mg) DSC	–	367.01

C[n+]1ccn(Cc2ccccc2)c1.F[B-](F)(F)F [1-benzyl-3-methylimidazolium tetrafluoroborate]
Settings	Molar enthalpy of transition or fusion, [3] [kcal/mol]	Triple point temperature, [1] [K]
Crystal	4.57	346.2
Metastable crystal	3.97	336.5

Settings	Glass transition temperature [°C]
[1]	-37.8

[2]
Settings	molar heat capacity at constant pressure [J/K/mol]
261.7 K, Crystal, Small sample (50 mg) DSC	292.62
265 K, Crystal, Small sample (50 mg) DSC	295.4
270 K, Crystal, Small sample (50 mg) DSC	299.6
275 K, Crystal, Small sample (50 mg) DSC	304.74
275.65 K, Metastable crystal, Small sample (50 mg) DSC	283.68
280 K, Crystal, Small sample (50 mg) DSC	309.29
280 K, Metastable crystal, Small sample (50 mg) DSC	287.35
285 K, Crystal, Small sample (50 mg) DSC	313.98
285 K, Metastable crystal, Small sample (50 mg) DSC	292.48
290 K, Crystal, Small sample (50 mg) DSC	319.04
290 K, Metastable crystal, Small sample (50 mg) DSC	298.09
295 K, Crystal, Small sample (50 mg) DSC	324.16
295 K, Metastable crystal, Small sample (50 mg) DSC	303.57
298.15 K, Crystal, Drop calorimetry	325.85
298.15 K, Metastable crystal, Drop calorimetry	304.61
300 K, Crystal, Small sample (50 mg) DSC	329.01
300 K, Metastable crystal, Small sample (50 mg) DSC	307.82
305 K, Crystal, Small sample (50 mg) DSC	333.82
305 K, Metastable crystal, Small sample (50 mg) DSC	312.26
310 K, Crystal, Small sample (50 mg) DSC	338.5
310 K, Metastable crystal, Small sample (50 mg) DSC	316.56
315 K, Crystal, Small sample (50 mg) DSC	343.23
315 K, Metastable crystal, Small sample (50 mg) DSC	320.92
318.98 K, Metastable crystal, Small sample (50 mg) DSC	324.78
320 K, Crystal, Small sample (50 mg) DSC	348.35
325 K, Crystal, Small sample (50 mg) DSC	353.67
328.42 K, Crystal, Small sample (50 mg) DSC	356.83
345.5 K, Small sample (50 mg) DSC, Liquid	417.35
350 K, Small sample (50 mg) DSC, Liquid	420.2
355 K, Small sample (50 mg) DSC, Liquid	423.44
357.55 K, Small sample (50 mg) DSC, Liquid	424.91

Cn1cc[n+](Cc2ccccc2)c1.F[P-](F)(F)(F)(F)F [1-benzyl-3-methylimidazolium hexafluorophosphate]
Crystal
Settings	Molar enthalpy of transition or fusion [kcal/mol]	Triple point temperature [K]
[1]	–	399.7
[3]	5.95	–

Settings	Glass transition temperature [°C]
[1]	-28.3

[2], Crystal
Settings	molar heat capacity at constant pressure [J/K/mol]
258.09 K, Small sample (50 mg) DSC	321.38
263.2 K, Small sample (50 mg) DSC	325.69
268.3 K, Small sample (50 mg) DSC	330.39
273.41 K, Small sample (50 mg) DSC	335.64
278.51 K, Small sample (50 mg) DSC	339.82
283.62 K, Small sample (50 mg) DSC	344.42
288.72 K, Small sample (50 mg) DSC	348.47
293.83 K, Small sample (50 mg) DSC	352.84
298.15 K, Drop calorimetry	360.42
298.93 K, Small sample (50 mg) DSC	357.16
304.04 K, Small sample (50 mg) DSC	361.74
309.14 K, Small sample (50 mg) DSC	366.16
314.25 K, Small sample (50 mg) DSC	371.17
319.35 K, Small sample (50 mg) DSC	376.2
324.46 K, Small sample (50 mg) DSC	380.3
329.56 K, Small sample (50 mg) DSC	384.8
334.67 K, Small sample (50 mg) DSC	389.73
339.77 K, Small sample (50 mg) DSC	394.64
344.88 K, Small sample (50 mg) DSC	399.86
349.98 K, Small sample (50 mg) DSC	404.92
355.09 K, Small sample (50 mg) DSC	410.63

— the NIST ThermoML archive (doi:10.1016/j.jct.2016.04.009)
